Legend:
soybean = assay: Test C postemergence; format: in vivo, Glycine max; settings: Glycine max, post-emergence
Method in brief: (§1)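 Injury was assessed visually against controls 13 to 15 days after application, with 0 meaning no effect and 100 full control; missing entries are shown as a dash. Preemergence sprays hit seeded loam–sand soil, postemergence sprays hit 1- to 4-leaf plants.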

pigweed [1] = assay: Test A preemergence; format: in vivo, Amaranthus retroflexus; settings: Amaranthus retroflexus, pre-emergence
Method in brief: (§2)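 Greenhouse pot test, loam/sand soil. Formulation: non-phytotoxic solvent mix plus surfactant. Pre: directed spray onto soil after sowing. Post: plants at 1–2 leaf, 2–10 cm. Rated visually vs untreated controls at ~10 d, 0 (no effect) to 100 (complete control).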

giant foxtail [2] = assay: Test C postemergence; format: in vivo, Setaria faberii; settings: Setaria faberi, post-emergence
Method in brief: as §1

wild oat = assay: Test C postemergence; format: in vivo, Avena fatua; settings: Avena fatua, post-emergence
Method in brief: as §1

velvetleaf [3] = assay: Test A postemergence; format: in vivo, Abutilon theophrasti; settings: Abutilon theophrasti, post-emergence, 240 h
Method in brief: as §2

large (Lg) crabgrass [4] = assay: Test A preemergence; format: in vivo, Digitaria sanguinalis; settings: Digitaria sanguinalis, pre-emergence, 240 h
Method in brief: as §2

giant foxtail [5] = assay: Test A postemergence; format: in vivo, Setaria faberii; settings: Setaria faberi, post-emergence, 240 h
Method in brief: as §2

giant foxtail [6] = assay: Test A preemergence; format: in vivo, Setaria faberii; settings: Setaria faberi, pre-emergence, 240 h
Method in brief: as §2

wheat, winter = assay: Test C postemergence; format: in vivo, Triticum aestivum; settings: Triticum aestivum, post-emergence
Method in brief: as §1

chickweed = assay: Test C postemergence; format: in vivo, Stellaria media; settings: Stellaria media, post-emergence
Method in brief: as §1

ragweed = assay: Test C postemergence; format: in vivo, Ambrosia elatior; settings: Ambrosia artemisiifolia, post-emergence
Method in brief: as §1

velvetleaf [7] = assay: Test A preemergence; format: in vivo, Abutilon theophrasti
Method in brief: as §2

large (Lg) crabgrass [8] = assay: Test A postemergence; format: in vivo, Digitaria sanguinalis; settings: Digitaria sanguinalis, post-emergence, 240 h
Method in brief: as §2

pigweed [9] = assay: Test A postemergence; format: in vivo, Amaranthus retroflexus; settings: Amaranthus retroflexus, post-emergence
Method in brief: as §2

velvetleaf [10] = assay: Test C postemergence; format: in vivo, Abutilon theophrasti; settings: Abutilon theophrasti, post-emergence
Method in brief: as §1

[11] = 125 g ai/ha, 0 to 100 scale where 0 is no effect and 100 is complete control, read-out: Plant response rating, Pigweed
[12] = 125 g ai/ha, 0 to 100 scale where 0 is no effect and 100 is complete control, read-out: Plant response rating, Crabgrass, Large
[13] = 125 g ai/ha, 0 to 100 scale where 0 is no effect and 100 is complete control, read-out: Plant response rating, Foxtail, Giant

N#Cc1cccc(Oc2ncc(Cl)cn2)c1-n1cc(Br)cn1 [Compound 52, 2-(4-bromo-1H-pyrazol-1-yl)-3-[(5-chloro-2-pyrimidinyl)oxy]benzonitrile]
Soybean plant response rating (crop injury, 0-100 scale) at 125 g/ha (soybean; 125 g ai/ha, postemergence, read-out: Plant response rating (0 to 100), Soybean): 95% | Soybean plant response rating (crop injury, 0-100 scale) at 250 g/ha (soybean; 250 g ai/ha, postemergence): 95% | Soybean plant response rating (crop injury, 0-100 scale) at 31 g/ha (soybean; Postemergence, 31 g ai/ha, scale 0 to 100 (0 no effect, 100 complete control), 13 to 15 days): 40% | Soybean plant response rating (crop injury, 0-100 scale) at 62 g/ha (soybean; Postemergence, 62 g ai/ha, scale 0 to 100 (0 no effect, 100 complete control)): 90% | pest or weed control at 125 g/ha (pigweed [1]; [11]): 100% | pest or weed control at 500 g/ha (pigweed [1]; 240 h, 500 g ai/ha, 0 to 100 scale, 0 no effect, 100 complete control, approx. 10 days, read-out: Pigweed plant response rating): 100% | pest or weed control at 125 g/ha (giant foxtail [2]; 125 g ai/ha, postemergence, read-out: Plant response rating (0 to 100), Foxtail, Giant): 70% | pest or weed control at 250 g/ha (giant foxtail [2]; 250 g ai/ha, postemergence, read-out: Plant response rating (0 to 100), Foxtail, Giant): 70% | pest or weed control at 31 g/ha (giant foxtail [2]; Postemergence, 31 g ai/ha, scale 0 to 100 (0 no effect, 100 complete control), 13 to 15 days, read-out: Plant response rating, Foxtail, Giant): 45% | pest or weed control at 62 g/ha (giant foxtail [2]; Postemergence, 62 g ai/ha, scale 0 to 100 (0 no effect, 100 complete control), read-out: Plant response rating, Foxtail, Giant): 50% | pest or weed control at 125 g/ha (wild oat; 125 g ai/ha, postemergence, read-out: Plant response rating (0 to 100), Oat, Wild): 10% | pest or weed control at 250 g/ha (wild oat; 250 g ai/ha, postemergence, read-out: Plant response rating (0 to 100), Oat, Wild): 15% | pest or weed control at 31 g/ha (wild oat; Postemergence, 31 g ai/ha, scale 0 to 100 (0 no effect, 100 complete control), 13 to 15 days, read-out: Plant response rating, Oat, Wild): 0% | pest or weed control at 62 g/ha (wild oat; Postemergence, 62 g ai/ha, scale 0 to 100 (0 no effect, 100 complete control), read-out: Plant response rating, Oat, Wild): 5% | pest or weed control at 125 g/ha (velvetleaf [3]; 125 g ai/ha, 0 to 100 scale where 0 is no effect and 100 is complete control, read-out: Plant response rating, Velvetleaf): 100% | pest or weed control at 500 g/ha (velvetleaf [3]; 500 g ai/ha, 0 to 100 scale, 0 no effect, 100 complete control, read-out: Plant response rating Velvetleaf): 100% | pest or weed control at 125 g/ha (large (Lg) crabgrass [4]; [12]): 100% | pest or weed control at 500 g/ha (large (Lg) crabgrass [4]; 500 g ai/ha, 0 to 100 scale, 0 no effect, 100 complete control, approx. 10 days, read-out: Crabgrass, Large plant response rating): 100% | pest or weed control at 125 g/ha (giant foxtail [5]; [13]): 90% | pest or weed control at 500 g/ha (giant foxtail [5]; 500 g ai/ha, 0 to 100 scale, 0 no effect, 100 complete control, read-out: Plant response rating Foxtail, Giant): 100% | pest or weed control at 125 g/ha (giant foxtail [6]; [13]): 100% | pest or weed control at 500 g/ha (giant foxtail [6]; 500 g ai/ha, 0 to 100 scale, 0 no effect, 100 complete control, approx. 10 days, read-out: Foxtail, Giant plant response rating): 100% | plant injury at 125 g/ha (wheat, winter; 125 g ai/ha, postemergence, read-out: Plant response rating (0 to 100), Wheat): 5% | plant injury at 250 g/ha (wheat, winter; 250 g ai/ha, postemergence, read-out: Plant response rating (0 to 100), Wheat): 5% | plant injury at 31 g/ha (wheat, winter; Postemergence, 31 g ai/ha, scale 0 to 100 (0 no effect, 100 complete control), 13 to 15 days, read-out: Plant response rating, Wheat): 0% | plant injury at 62 g/ha (wheat, winter; Postemergence, 62 g ai/ha, scale 0 to 100 (0 no effect, 100 complete control), read-out: Plant response rating, Wheat): 0% | pest or weed control at 125 g/ha (chickweed; 125 g ai/ha, postemergence, read-out: Plant response rating (0 to 100), Chickweed): 90% | pest or weed control at 250 g/ha (chickweed; 250 g ai/ha, postemergence, read-out: Plant response rating (0 to 100), Chickweed): 95% | pest or weed control at 31 g/ha (chickweed; Postemergence, 31 g ai/ha, scale 0 to 100 (0 no effect, 100 complete control), 13 to 15 days, read-out: Plant response rating, Chickweed): 40% | pest or weed control at 62 g/ha (chickweed; Postemergence, 62 g ai/ha, scale 0 to 100 (0 no effect, 100 complete control), read-out: Plant response rating, Chickweed): 60% | pest or weed control at 125 g/ha (ragweed; 125 g ai/ha, postemergence, read-out: Plant response rating (0 to 100), Ragweed): 80% | pest or weed control at 250 g/ha (ragweed; 250 g ai/ha, postemergence, read-out: Plant response rating (0 to 100), Ragweed): 95% | pest or weed control at 31 g/ha (ragweed; Postemergence, 31 g ai/ha, scale 0 to 100 (0 no effect, 100 complete control), 13 to 15 days, read-out: Plant response rating, Ragweed): 40% | pest or weed control at 62 g/ha (ragweed; Postemergence, 62 g ai/ha, scale 0 to 100 (0 no effect, 100 complete control), read-out: Plant response rating, Ragweed): 45% | Plant response rating, Velvetleaf (velvetleaf [7]; 125 g ai/ha, 0 to 100 scale where 0 is no effect and 100 is complete control): 100 | pest or weed control at 500 g/ha (velvetleaf [7]; Abutilon theophrasti, pre-emergence, 240 h, 500 g ai/ha, 0 to 100 scale, 0 no effect, 100 complete control, approx. 10 days, read-out: Velvetleaf plant response rating): 100% | pest or weed control at 125 g/ha (large (Lg) crabgrass [8]; [12]): 90% | pest or weed control at 500 g/ha (large (Lg) crabgrass [8]; 500 g ai/ha, 0 to 100 scale, 0 no effect, 100 complete control, read-out: Plant response rating Crabgrass, Large): 100% | pest or weed control at 125 g/ha (pigweed [9]; [11]): 100% | pest or weed control at 500 g/ha (pigweed [9]; 240 h, 500 g ai/ha, 0 to 100 scale, 0 no effect, 100 complete control, read-out: Plant response rating Pigweed): 100% | pest or weed control at 125 g/ha (velvetleaf [10]; 125 g ai/ha, postemergence, read-out: Plant response rating (0 to 100), Velvetleaf): 70% | pest or weed control at 250 g/ha (velvetleaf [10]; 250 g ai/ha, postemergence, read-out: Plant response rating (0 to 100), Velvetleaf): 90% | pest or weed control at 31 g/ha (velvetleaf [10]; Postemergence, 31 g ai/ha, scale 0 to 100 (0 no effect, 100 complete control), 13 to 15 days, read-out: Plant response rating, Velvetleaf): 50% | pest or weed control at 62 g/ha (velvetleaf [10]; Postemergence, 62 g ai/ha, scale 0 to 100 (0 no effect, 100 complete control), read-out: Plant response rating, Velvetleaf): 60%

Reference: patent US9695155B2, “Herbicidal substituted pyrimidinyloxy benzene compounds” (E. I. DU PONT DE NEMOURS AND COMPANY, priority 2013, dated 2017)
